Structures can show the parent of a compound that is named as a salt.
Columns and labels:
[1] = test system: colonic microbiota (fecal inoculum of two healthy adults); assay: Microbiome diversity, alpha and beta (second set); type: cell-based, human
Method: (§1) In a second set of in vitro experiments, at the start of the short-term colonic incubations, the test ingredients were added to nutritional medium containing basal nutrients present in the colon (e.g. host-derived glycans such as mucin). Three doses were tested per product. The nutritional medium used for this particular project was again supplemented with NaCl, MgSO4, CaCl2, hemin and bile salts, and with carbon sources glucose, starch and cellobiose. A blank, containing the same nutritional medium as that used for the product incubations, but without product addition, was included for each donor. In doing so, an assessment can be made of the background activity of the bacterial community, which results from fermentation of compounds in the nutritional medium. As a source of the colonic microbiota a fecal inoculum of two healthy adults was added. Incubations were performed for 48 h at 37′C, under shaking (90 rpm) and anaerobic conditions and protected from light. […] For the second set of in vitro experiments, two techniques were combined according to Vandeputte et al.

[2] = test system: colonic microbiota (fecal inoculum of two healthy adults); assay: 16S-targeted Illumina sequencing with flow cytometry, taxa abundance (second set); type: cell-based, human; conditions: 24 h fermentation
Method: as §1

[3] = test system: fecal suspension from the selected donor; assay: Intestinal batch fermentation, SCFA production (first set); type: cell-based, human; conditions: after 48 h fermentation, vs corresponding control
Method: In a first set of in vitro experiments at the start of intestinal batch fermentation incubation, all test ingredients were added from stock solutions to the modified nutritional medium, containing (g/l): 2.5 K2HPO4, 10.9 KH2PO4, 2 NaHCO3, 2 yeast extract, 2 peptone, 1 mucin, 0.5 cysteine, 2 Tween 80, 2 glucose, 2 starch, 2 cellobiose, 0.1 NaCl, 0.01 MgSO4·7H2O, 0.01 CaCl2·6H2O, 0.05 hemin, 0.5 bile salts.
The other compounds were prepared in ethanol: • Vitamin K1 (VK1), • MEG-3 0080 EE Oil (MEG-3 0080 EE), • MEG-3 4535 EE Oil (MEG-3 4535 EE), • MEG-3 8000 EE Oil (MEG-3 8000 EE).
(§2) Since ethanol is known to have antimicrobial effects, two blanks for each type of stock solution were included. As a source of the microbial community, a freshly prepared fecal suspension from the selected donor was added to the reactors. […] All tests, except the blanks, were performed in single repetition, resulting in 40 independent incubations, as specified in Table 1. Incubation conditions of the pre-screening experiment and the final experiment were 48 h at 37° C., under shaking (90 rpm) and anaerobic conditions. DNA were extracted from effluent samples collected from each fermentation flask before (0 h fermentation) and after fermentation (24 h fermentation) and use for microbiome composition analysis by Shotgun sequencing. Effluent samples were collected from each fermentation flask before (0 h fermentation) and after fermentation (48 h fermentation), sterilized by filtering through 0.22 μm filters and used for short chain fatty acids (SCFA), quantification of immunological biomarkers and in vitro analysis in cell culture systems.
Short chain fatty acids (SCFA) are an assessment of the microbial carbohydrate metabolism (acetate, propionate and butyrate) or protein metabolism (branched SCFA) and can be compared to typical fermentation patterns for normal GI microbiota. Samples for SCFA analysis were analyzed after 0, 6, 24 and 48 h of incubation for both set of in vitro experiments, above.
SCFA were extracted from the samples with diethyl ether, after the addition of 2-methyl hexanoic acid as an internal standard. Extracts were analysed using a GC-2014 gas chromatograph (Shimadzu's-Hertogenbosch, the Nether-lands), equipped with a capillary fatty acid-free EC-1000Econo-Cap column (dimensions: […]×0.53 mm, film thickness […]; Alltech, Laarne, Belgium), a flame ionization detector and a split injector. The injection volume was […] and the temperature profile was set from 110 to 160° C., with a temperature increase of 6° C. min-1. The carrier gas was nitrogen and the temperature of the injector and detector were […] and 220° C., respectively. The production of unbranched and branched SCFA was calculated by summing the molar concentrations of acetate, propionate, butyrate, valerate and caproate, and summing isobutyrate, isovalerate and isocaproate molar concentrations, respectively. The total SCFA production was defined as the sum of unbranched and branched SCFA.

[4] = test system: Bifidobacterium; assay: Microbiome composition by shotgun sequencing: Bifidobacterium (first set); type: cell-based, human; conditions: after 24 h fermentation, vs corresponding control
Method: as §2
(§3) For the first set of in vitro experiments, total DNA was extracted from all samples collected throughout the study using the QIAamp DNA stool minikit (Qiagen, Crawley, United Kingdom) according to the manufacturer's instructions, apart from addition of a bead-beating step and increasing the lysis temperature to 95° C. as described previously (McCormack et al., 2018).
(§4) After DNA isolation, DNA was quantified using the Qubit High Sensitivity DNA assay (Thermo Fisher). Whole metagenome libraries were then prepared using the Illumina Nextera XT kit (Illumina) in accordance with the manufacturer's instructions, with the following modifications: Firstly, tagmentation time was increased to 7 min and secondly, following incorporation of indices and Ampure purification of the products, the samples were each individually sized by running on an Agilent High Sensitivity Chip (Agilent) and quantified using the Qubit High Sensitivity DNA assay (Thermo Fisher) in accordance with Teagasc Sequencing Platform SOPs. The samples were then pooled equimolarly and sequenced on the Illumina NextSeq 500 with a NextSeq 500/550 v2 high-output reagent kit (300 cycles). All sequencing was done in the Teagasc sequencing facility in accordance with standard Illumina sequencing protocols.
(§5) Delivered raw FASTQ sequence files were quality checked as follows: poor quality and duplicate read removal, as well as trimming was implemented using a combination of SAM and Picard tools. Taxonomy was assigned to the reads using the Kraken software and functional analysis was performed with Super focus.

[5] = test system: fecal microbial community; assay: Microbiome composition by shotgun sequencing: alpha diversity (first set); type: cell-based, human; conditions: after 24 h fermentation, vs corresponding control
Method: as §2, §3, §4, §5

[6] = test system: genes involved in Acetyl-CoA fermentation to Butyrate pathway; assay: Shotgun sequencing functional analysis: butyrate pathway genes (first set); type: cell-based, human; conditions: 0.2× dose; after 24 h fermentation; vs corresponding control
Method: as §2, §3, §4, §5

[7] = test system: Co-cultures of Caco-2 and HT29-MTX-E12 cells; assay: Barrier integrity, leaky gut model, apical stressor Rhamnolipids; type: cell-based; conditions: 5× dose; 48 h minus 0 h fermentation samples; vs corresponding control
Method: Since ethanol is known to have antimicrobial effects, two blanks for each type of stock solution were included. As a source of the microbial community, a freshly prepared fecal suspension from the selected donor was added to the reactors. […] All tests, except the blanks, were performed in single repetition, resulting in 40 independent incubations, as specified in Table 1. Incubation conditions of the pre-screening experiment and the final experiment were 48 h at 37° C., under shaking (90 rpm) and anaerobic conditions. […] Effluent samples were collected from each fermentation flask before (0 h fermentation) and after fermentation (48 h fermentation), sterilized by filtering through 0.22 μm filters and used for short chain fatty acids (SCFA), quantification of immunological biomarkers and in vitro analysis in cell culture systems.
Co-cultures of Caco-2 and HT29-MTX-E12 cells were used to assess the protective effect of the supernatants before (0 h) and after fermentation (48 h) for both sets of in vitro experiments above.
CaCo-2 ECACC 86010202 and HT29-MTX-E12 ECACC 12040401 cells (both from European Collection of Cell Cultures, Salisbury, UK) were both cultured at 37° C., in atmosphere of 5% CO2 in DMEM medium supplemented with 4.5 g/L D-Glucose, 4 mM L-Glutamine, 1 mM Sodium Pyruvate, 1% MEM Non-Essential Amino Acids, 50 μg/mL Gentamicin (Life Technologies Europe B.V., Zug, Switzerland) and 10% heat-inactivated FBS (Sigma-Aldrich, Buchs, Switzerland). Sub-confluent cells were trypsinized using 0.25% Trypsin/EDTA (Life Technologies Europe B.V., Zug, Switzerland) and passaged at a ratio of 1:5-1:10 twice a week. Cells between passages 55 and 85 were used for this study.
Cells were seeded at a density of 20000 cells/well in a 7:3 ratio (Caco-2:HT29-MTX-E12) in Corning HTS Transwell-24 system PET membranes, 0.4 μM pore size, cell growth area 0.33 cm2/well (Corning BV, Amsterdam, Netherlands) and cultured as described above. Media was changed every second to third day.
For both sets of in vitro experiments, the integrity of cell monolayers after the stressor test was evaluated by both TEER values and by measuring the transport of Lucifer yellow from apical to basolateral compartments (Leaky gut model). A prewarmed HBSS transport buffer composed of Hank's Balanced Salt Solution pH 7.4 with Ca2+ and Mg2+, containing 5.5 mM D-(+)-glucose, Sodium Bicarbonate, and supplemented with 4 mM L-glutamine, 20 mM HEPES (Life Technologies Europe B.V., Zug, Switzerland) was used for all permeability experiments. The inserts were rinsed twice with HBSS using a reservoir tray, 100 μl HBSS were then added to the apical site of the inserts and subsequently moved to new wells with fresh HBSS and allowed to equilibrate at 37° C. for 60 min in the incubator followed by TEER measurement to obtain baseline resistance readings.
Lucifer Yellow CH dilithium salt (Sigma-Aldrich, Buchs, Switzerland) was dissolved in HBSS at a final concentration of 100 μg/ml. Basolateral stressor EtOH (Merck, KgaA, Darmstadt, Germany) was diluted to 5% in HBSS. Apical Stressor Rhamnolipids R90 (AGAE Technologies, Corvallis, USA) was dissolved in HBSS containing Lucifer Yellow at a final concentration of 350 μg/ml. All solutions were prepared freshly each time.
The HBSS transport buffer from the basolateral chamber was aspirated first, then the HBSS from the apical chamber and replaced with Lucifer yellow solution. For the apical stressor test, Lucifer yellow solution containing 350 μg/ml Rhamnolipids or Lucifer yellow solution without stressor for the control wells was loaded into the apical compartment, blank HBSS was subsequently added to the basolateral chamber.

[8] = test system: HT29 cells; assay: HT29 cell culture, quantification of immunological biomarkers; type: cell-based; conditions: effluent from 24 h fermentation, vs corresponding control
Method: as §2, with “([…]), […]” for “(0 h fermentation) and after fermentation (48 h fermentation), sterilized by filtering through 0.22 μm filters and used for short chain fatty acids (SCFA), quantification of immunological biomarkers and in vitro analysis in”
For both sets of in vitro experiments, HT29 cells were obtained from American Type Culture Collection (Manassas, VA). Cells were cultured in DMEM supplemented with 10% fetal bovine serum (FBS), 50 units/ml penicillin, 50 μg/ml streptomycin, L-glutamine, and nonessential amino acids (Life Technologies Europe B.V., Zug, Switzerland). Cells were seeded into 12-well plates at 8×10^5 cells per well and used after 2 days of preculture. They were starved in DMEM containing 0.25% FBS for 18 h before treatment. Cells were treated for 24 hours with TNF-α at 100 ng/mL or fermentation supernatants which were sterile filtered and diluted 1:20 in DMEM containing 0.25% FBS. All treatments were done in triplicate. Consequently, cytokines, chemokines and interleukins were quantified in HT29 supernatants using the Luminex Technology (LiquiChip Workstation IS 200, Qiagen, Hilden, Germany) with Bio-Plex Pro Human Cytokine Panel kits (Bio-Rad, Hercules, CA) or with Luminex Screening Assay kits (R&D Systems, Inc., Minneapolis, MN), following the manufacturer's instructions. The data were acquired with the Luminex IS 2.3 software and evaluated with the LiquiChip Analyser software (Qiagen, Hilden, Germany).

In the case of `NC(=O)c1cccnc1` [niacinamide, Niacinamide], the “beta-diversity (Bray-Curtis distance to control)” value (“beta-diversity” below) ([1]; 0.2× dose, donor D) is reported as “increases beta-diversity”, the “alpha-diversity (Shannon diversity index)” value ([1]; 1× dose, donor C) is reported as “increases alpha-diversity” and the “beta-diversity” value ([1]; 5× dose, donor D) is reported as “increases beta-diversity”. For the same molecule, the Akkermansiaceae relative abundance ([2]; 0.2× dose, donor C) was “increase Akkermansiaceae relative abundance”, the Erysipelotrichaceae relative abundance ([2]; 1× dose, donor C) was “increase Erysipelotrichaceae relative abundance” and the Erysipelotrichaceae relative abundance ([2]; 5× dose, donor C) was “increase Erysipelotrichaceae relative abundance”.

In the case of `C=C1CC[C@H](O)C/C1=C/C=C1\CCC[C@]2(C)[C@@H]([C@H](C)CCCC(C)C)CC[C@@H]12` [Vitamin D, Vitamin D3], the butyrate production ([3]; 0.2× dose) is reported as “increase butyrate production”, the butyrate production ([3]; 1× dose) is reported as “increase butyrate production” and the propionate production ([3]; 1× dose) is reported as “increase propionate production”. For the same molecule, the “total SCFAs production” value ([3]; 1× dose) was “increase total SCFAs production”, the propionate production ([3]; 5× dose) was “increase propionate production” and the “total SCFAs production” value ([3]; 5× dose) was “increase total SCFAs production”. The Bifidobacterium relative abundance ([4]; 0.2× dose) was “increase Bifidobacterium relative abundance”, the Bifidobacterium relative abundance ([4]; 5× dose) was “increase Bifidobacterium relative abundance” and the “microbiome alpha diversity (Shannon diversity index)” value ([5]; 0.2× dose) was “increase microbiome diversity”. The “microbiome alpha diversity (Shannon diversity index)” value ([5]; 5× dose) was “increase microbiome diversity”, the “relative abundance of genes involved in Acetyl-CoA fermentation to Butyrate pathway” value [6] was “increase relative abundance” and the “TEER, apical induction of leaky gut cellular model” value [7] was “increase TEER”. The “MIP3A-CCL20 production by HT29 cells” value ([8]; 0.2× dose) was “increase MIP3A-CCL20 production”, the “MIP3A-CCL20 production by HT29 cells” value ([8]; 1× dose) was “increase MIP3A-CCL20 production” and the “MIP3A-CCL20 production by HT29 cells” value ([8]; 5× dose) was “increase MIP3A-CCL20 production”.

With `Cc1ncc(CO)c(CO)c1O.Cl` [pyridoxine, Pyridoxine Hydrochloride] the “beta-diversity” value ([1]; 0.2× dose, donor D) was “increases beta-diversity”, the “beta-diversity” value ([1]; 1× dose, donor D) was “increases beta-diversity” and the “alpha-diversity (Shannon diversity index)” value ([1]; 5× dose, donor D) was “increases alpha-diversity”. For the same molecule, the “beta-diversity” value ([1]; 5× dose, donor D) was “increases beta-diversity”, the Akkermansiaceae relative abundance ([2]; 0.2× dose, donor D) was “increase Akkermansiaceae relative abundance” and the “Faecalibacterium prausnitzii relative abundance” value ([2]; 0.2× dose, donor D) was “increase Faecalibacterium prausnitzii relative abundance”. For the same molecule, the Erysipelotrichaceae relative abundance ([2]; 1× dose, donor C) was “increase Erysipelotrichaceae relative abundance”, the Akkermansiaceae relative abundance ([2]; 1× dose, donor D) was “increase Akkermansiaceae relative abundance” and the Bifidobacteriaceae relative abundance ([2]; 1× dose, donor D) was “increase Bifidobacteriaceae relative abundance”. The “Faecalibacterium prausnitzii relative abundance” value ([2]; 1× dose, donor D) was “increase Faecalibacterium prausnitzii relative abundance”, the Prevotellaceae relative abundance ([2]; 5× dose, donor C) was “increase Prevotellaceae relative abundance” and the Akkermansiaceae relative abundance ([2]; 5× dose, donor D) was “increase Akkermansiaceae relative abundance”. The Bifidobacteriaceae relative abundance ([2]; 5× dose, donor D) was “increase Bifidobacteriaceae relative abundance”, the “Faecalibacterium prausnitzii relative abundance” value ([2]; 5× dose, donor D) was “increase Faecalibacterium prausnitzii relative abundance” and the Veillonellaceae relative abundance ([2]; 5× dose, donor D) was “increase Veillonellaceae relative abundance”.

`Cc1ncc(C[n+]2csc(CCO)c2C)c(N)n1` [thiamine, Thiamine Hydrochloride] was tested, and the “alpha-diversity (Shannon diversity index)” value ([1]; 0.2× dose, donor C) was “increases alpha-diversity”, the “alpha-diversity (Shannon diversity index)” value ([1]; 1× dose, donor C) was “increases alpha-diversity” and the “beta-diversity” value ([1]; 1× dose, donor C) was “increases beta-diversity”. For the same molecule, the “beta-diversity” value ([1]; 5× dose, donor D) was “increases beta-diversity”, the Akkermansiaceae relative abundance ([2]; 1× dose, donor C) was “increase Akkermansiaceae relative abundance” and the Erysipelotrichaceae relative abundance ([2]; 5× dose, donor C) was “increase Erysipelotrichaceae relative abundance”.

With `O=C(O)CCCC[C@@H]1SC[C@@H]2NC(=O)N[C@@H]21` [biotin, D-Biotin] the “alpha-diversity (Shannon diversity index)” value ([1]; 0.2× dose, both donors) was “increases alpha-diversity”, the “beta-diversity” value ([1]; 1× dose, both donors) was “increases beta-diversity” and the “alpha-diversity (Shannon diversity index)” value ([1]; 5× dose, donor D) was “increases alpha-diversity”. For the same molecule, the “beta-diversity” value ([1]; 5× dose, donor D) was “increases beta-diversity”, the Erysipelotrichaceae relative abundance ([2]; 0.2× dose, donor C) was “increase Erysipelotrichaceae relative abundance” and the Akkermansiaceae relative abundance ([2]; 0.2× dose, donor D) was “increase Akkermansiaceae relative abundance”. The Bifidobacteriaceae relative abundance ([2]; 0.2× dose, donor D) was “increase Bifidobacteriaceae relative abundance”, the “Faecalibacterium prausnitzii relative abundance” value ([2]; 0.2× dose, donor D) was “increase Faecalibacterium prausnitzii relative abundance” and the Erysipelotrichaceae relative abundance ([2]; 1× dose, donor C) was “increase Erysipelotrichaceae relative abundance”. For the same molecule, the Barnesiellaceae relative abundance ([2]; 1× dose, donor D) was “increase Barnesiellaceae relative abundance”, the Bifidobacteriaceae relative abundance ([2]; 1× dose, donor D) was “increase Bifidobacteriaceae relative abundance” and the “Faecalibacterium prausnitzii relative abundance” value ([2]; 1× dose, donor D) was “increase Faecalibacterium prausnitzii relative abundance”. The Bifidobacteriaceae relative abundance ([2]; 5× dose, donor D) was “increase Bifidobacteriaceae relative abundance” and the “Faecalibacterium prausnitzii relative abundance” value ([2]; 5× dose, donor D) was “increase Faecalibacterium prausnitzii relative abundance”.
